Marks after values point to notes of the source that are not given here.
Columns and labels:
Type in all cases: in vivo, mouse
[1] = tested on: experimental autoimmune encephalomyelitis (EAE) in WT C57BL/6 female mice; assay: EAE clinical scoring, E2 pellets, WT mice (Example II)
[2] = tested on: EAE in GPR30KO female mice; assay: EAE clinical scoring, E2 pellets, GPR30KO mice (Example II); settings: E2 treated GPR30KO mice, 2.5 mg/60 day pellet
[3] = Serum E2 level by radioimmunoassay in E2-implanted mice; settings: mice with 2.5 mg/60 day release E2 pellets; RIA; FIG. 3
Experimental: Serum levels of E2 were determined by radioimmunoassay (RIA) after Sephadex LH-20 column chromatography (GE Healthcare Life Sciences, Piscataway, N.J.). Representative animals were bled by cardiac puncture, and the blood was allowed to clot at 4° C. overnight. The samples were centrifuged, and the sera were collected and stored at −80° C. until hormone analysis was performed. All samples were analyzed in a single assay for each hormone.

[4] = tested on: cytokine secretion by splenocytes of WT immunized mice; assay: Cytokine secretion of mMog-35-55 stimulated splenocytes, Luminex, WT mice; settings: 48 h supernatants
Experimental: PD-1KO (Dr. […] One week after implantation experimental autoimmune encephalomyelitis (EAE) was induced. Splenocytes were harvested from […] cell proliferation and cytokine secretion in 48 h supernatants. (*P<0.05, or **P<0.01 compared to placebo). Lymph node and spleen cells were cultured at 4×10^6 cells/well in a 24 well flat-bottom culture plate in stimulation medium (RPMI 1640, 1% sodium pyruvate, 1% L-glutamine, 0.4% 2-β-ME, 10% FBS) with 25 μg/ml mMog-35-55 peptide for 48H. Supernatants were then harvested and stored at -80° C. until tested for cytokines. Culture supernatants were assessed for cytokine levels using a Luminex Bio-Plex mouse cytokine assay kit (BioRad, Hercules, Calif.) following the manufacturer's instructions. The following cytokines were determined in a single assay in three separate experiments: IL-1βIFN-γ, TNF-α, IL-2, IL-4, IL-5. IL-6, IL-12, IL-13, and IL-17. […] This cytokine profile was drastically altered in G-1 treated PD-1Ko mice. The decrease of Il-17 and increase of Il-6, Il-10 and IFN-γ production were abolished, whereas the reduction in IL-2 and Il-4 remained. Thus PD-1 was required for […] downregulation of IL-17 but not Il-2 and Il-4, and upregulation of IL-6, Il10 and IFN-γ.

[5] = WT, 2.5 mg/60 day release E2 pellet, 25 days

C[C@]12CC[C@@H]3c4ccc(O)cc4CC[C@H]3[C@@H]1CC[C@@H]2O [E2, 17β estradiol]
clinical EAE (in words) ([1]; E2-treated WT mice, 2.5 mg/60 day pellet): no sign of the disease
Incidence ([1]; WT, 2.5 mg/60 day release E2 pellet one week before immunization, concluded 25 days after immunization): 0/10
CDI [1, 5]: 0**
Daily [1, 5]: 0**
Mortality [1, 5]: 0/10
Peak ([1]; WT, 2.5 mg/60 day release E2 pellet, 25 days, EAE score scale 0-6): 0**
clinical EAE (in words) [2]: delayed onset and were only partially protected from EAE
serum E2 levels [3]: 1.5 to 2 ng/mL

CC(=O)c1ccc2c(c1)C1C=CCC1C(c1cc3c(cc1Br)OCO3)N2 (stereo not drawn) [G-1]
secretion of IL-17 ([4]; G-1 1.8 mg/40 day pellet, WT, 25 μg/ml mMog-35-55): significantly reduced
production of IFN-γ ([4]; G-1 treated WT): increased
production of IL-1β ([4]; G-1 treated WT): did not significantly change
production of IL-5 ([4]; G-1 treated WT): did not significantly change
production of Il-4 ([4]; G-1 treated WT): suppressed
production of Il-6 ([4]; G-1 treated WT): increased
production of Il-12 ([4]; G-1 treated WT): did not significantly change
production of TNF-α ([4]; G-1 treated WT): did not significantly change
secretion of IL-2 ([4]; G-1 treated WT): significantly reduced
secretion of IL-10 ([4]; G-1 treated WT): increased

From patent US20110124614A1, “Methods And Compositions For The Treatment of Autoimmune Disorders” (priority 2008, published 2011)
